Reference: US7705034B2, “Vinylogous acid derivatives” (Hoffmann-La Roche Inc., priority 2006, dated 2010)

Target: T1, Chymase purified form human skin mast cells (Homo sapiens, UniProt P23946)
T1 construct: Chymase purified form human skin mast cells was obtained from Calbiochem; purchased Calbiochem (Merck Biosciences, San Diego, Calif., USA); host or cells: human skin mast cells (natural source)
T1 sequence (P23946 22-247): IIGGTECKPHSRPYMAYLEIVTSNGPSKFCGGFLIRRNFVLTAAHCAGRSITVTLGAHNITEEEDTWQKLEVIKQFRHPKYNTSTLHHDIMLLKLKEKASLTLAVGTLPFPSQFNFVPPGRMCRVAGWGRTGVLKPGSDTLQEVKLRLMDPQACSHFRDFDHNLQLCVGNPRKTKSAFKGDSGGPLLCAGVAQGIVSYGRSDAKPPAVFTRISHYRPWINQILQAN
Experiment: chymase peptide substrate assay (AAPF-AMC fluorescence)
Assay type: biochemical
Conditions: 1 nM chymase, 0.02 mM AAPF-substrate, pH 7.4, room temperature, 30 min pre-incubation
Method: The peptide was synthesized with a purity of 95% from Bachem, Bubendorf, Switzerland). Chymase purified form human skin mast cells was obtained from Calbiochem (Merck Biosciences, San Diego, Calif., USA). The assay buffer was 0.15 M NaCl, 0.05M, Tris HCl, 0.05% CHAPS (3-[(3-Cholamidopropyl)-dimethylammonio]-1-propane sulphonate), 0.1 mg/ml Heparin (Heparin sodium, Sigma, porcine intestinal mucosa), 0.02 mM AAPF-substrate, 1 nM Chymase at pH 7.4. The assay was performed in 96-well plates (Packard Optiplate), with a 0.05 ml volume at room temperature. Chymase activity was indicated by the initial rate of increase in fluorescence at 340/440 nm (excitation/emission) from free 7-amino-4-methylcoumarin released from the substrate. Inhibition of the activity by inhibitory compounds was read after 30 min pre-incubation with the chymase at room temperature in assay buffer without AAPF-substrate. The assay was then started by addition of the indicated concentration of AAPF-substrate.

| Structure (SMILES) | IC50 |
| --- | --- |
| CC(=O)NC(C)(C)Cc1c(C(C2=C(O)C(C)(c3ccccc3)C2=O)c2ccccc2)[nH]c2cc(C)ccc12 (stereo not shown) [Example 3, N-(2-{2-[(2-Hydroxy-3-methyl-4-oxo-3-phenyl-cyclobut-1-enyl)-phenyl-methyl]-6-methyl-1H-indol-3-yl}-1,1-dimethyl-ethyl)-acetamide] | 27 nM |
| Cc1c(C(C2=C(O)C(C)(c3ccccc3)C2=O)c2ccccc2)[nH]c2ccccc12 (stereo not shown) [Example 6, 3-Hydroxy-4-methyl-2-[(3-methyl-1H-indol-2-yl)-phenyl-methyl]-4-phenyl-cyclobut-2-enone] | 34 nM |
| CC(=O)NCc1c(C(C2=C(O)C(C)(c3ccccc3)C2=O)c2ccccc2)[nH]c2cc(C)ccc12 (stereo not shown) [Example 10, N-{2-[(2-Hydroxy-3-methyl-4-oxo-3-phenyl-cyclobut-1-enyl)-phenyl-methyl]-6-methyl-1H-indol-3-ylmethyl}-acetamide] | 25 nM |
| Cc1ccc(C2(C)C(=O)C(C(c3ccccc3)c3[nH]c4cc(C)ccc4c3C)=C2O)cc1 (stereo not shown) [Example 13, 2-[(3,6-Dimethyl-1H-indol-2-yl)-phenyl-methyl]-3-hydroxy-4-methyl-4-p-tolyl-cyclobut-2-enone] | 8 nM |
